These results are taken from US20250368629A1, “FLAVONOID COMPOUNDS AND METHODS AND MATERIALS FOR USING FLAVONOID COMPOUNDS TO TREAT FIBROTIC CONDITIONS” (Mayo Foundation for Medical Education and Research, priority 2022, published 2025).

In series [1] the target is T1, DRAK1 (Homo sapiens, UniProt Q9UEE5).
T1 construct: purchased Reaction Biology
T1 sequence (Q9UEE5 1-414): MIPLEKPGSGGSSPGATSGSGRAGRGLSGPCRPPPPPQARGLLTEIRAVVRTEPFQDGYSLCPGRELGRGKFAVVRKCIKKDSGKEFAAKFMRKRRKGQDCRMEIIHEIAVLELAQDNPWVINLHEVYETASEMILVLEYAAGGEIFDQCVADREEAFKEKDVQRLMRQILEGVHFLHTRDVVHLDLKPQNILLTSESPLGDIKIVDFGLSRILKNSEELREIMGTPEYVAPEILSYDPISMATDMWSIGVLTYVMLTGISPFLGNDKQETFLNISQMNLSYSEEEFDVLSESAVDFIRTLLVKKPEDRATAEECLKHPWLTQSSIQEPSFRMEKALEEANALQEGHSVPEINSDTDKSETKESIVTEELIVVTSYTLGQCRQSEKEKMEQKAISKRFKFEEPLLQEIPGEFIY
As to the kind of experiment: DRAK1 kinase activity assay (radiolabeled ATP, Reaction Biology). The format is biochemical. To be noted: FIG. 30. Here is the method:
DRAK1 kinase activity was also assessed. […] A DRAK1 kinase activity was performed by Reaction Biology. DRAK1 kinase activity was measured and plotted (FIG. 30).

Series [2] has as its target T2, STK17A (Homo sapiens, UniProt Q9UEE5).
T2 construct: purchased Reaction Biology
T2 sequence (Q9UEE5 1-414): T1 sequence (Q9UEE5 1-414)
Kind of series: Kinase dose response curve on STK17A. The format is biochemical. To be noted: FIG. 4A, read-out: half maximal inhibitory concentration (IC50) on STK17A. Here is the method: FIGS. 4A-4B show mechanism of action of F-4N. […] Dose response curves on STK17A and STK17B show half maximal inhibitory concentration (IC50) values of ˜200 nM. […] FIG. 4A. F-4N was sent to Reaction Biology to be tested against their entire wild-type kinase panel. 1 μM F-4N was tested in an ATP competition assay against 420+ kinases. Z-scores were calculated to identify true hits over noise.

Series [3] can be described thus: in vitro. Type of series: in vitro ADME. To be noted: rat. The method, then: Plasma protein binding assays were also performed (Table 2). Compounds were incubated with rat plasma for 4 hours. The percent of F-4N recovered was analyzed by LC-MS. Warfarin was used as a control for a compound with high plasma protein binding. Analysis performed by Cyprotex (Framingham, MA).

For series [4], the system named is mouse model of NASH. As to the kind of experiment: Mouse model of NASH (CD-HFD). To be noted: 10 mg/kg daily i.p. for 2 weeks. The format is in vivo. The method, then: FIGS. 20A-20D show the efficacy of F-4N in a mouse model of NASH. FIG. 20A) Study design and weight changes of mice treated with 10 mg/kg F-4N daily i.p. for 2 weeks. FIG. 20B). Representative H&E and Sirius Red liver histology. FIG. 20C) Objective automated quantification of Sirius Red staining. FIG. 20D) Liver weight and colon weight changes. N=5 chow diet, N=10 holine deficient-high fat diet (CD-HFD) vehicle, N=10 CD-HFD+F-4N.
Mice in a mouse model of NASH were treated with 10 mg/kg F-4N daily i.p. for 2 weeks (FIG. 20A). Livers from treated mice were analyzed by H&E and Sirius Red staining (FIG. 20B). Sirius Red staining was quantified (FIG. 20C). Liver weight and colon weight changes were also assessed (FIG. 20D).

Series [5] deals with Human adult lung fibroblasts (passage 3). Kind of series: Fibroblast activation (TGFβ, alpha-smooth muscle actin). The conditions noted are these: Homo sapiens, Fibroblast; +2 ng/mL TGFβ, 96 hours, alpha-smooth muscle actin intensity. The format is cell-based. The method, then:
Human adult lung fibroblasts (passage 3) were plated into 96-well plates and treated with the indicated compound (6-point dose-response) +2 ng/mL TGFβ to stimulated fibroblast activation. Cells were incubated for 96 hours, fixed using 4% PFA, permeabilized using 0.25% triton x-100, and stained using a primary antibody recognizing alpha-smooth muscle actin and a secondary fluorescent conjugated antibody, and DAPI. Cells were then imaged using a 4× objective on a Cytation5 microscope and alpha-smooth muscle actin intensity was quantified using automated software (Biotek Gen5). Data shown are the IC50 values for each compounds efficacy at reducing expression of alpha-smooth muscle actin, calculated from the calculated dose-response curves, N=3 independent.

In series [6] the test system is Mdr2-/- mice. Kind of series: Mdr2-/- mouse model of PSC with established liver fibrosis, i.p. treatment. The format is in vivo. The conditions noted are these: 10 mg/kg/daily i.p. for 14 days. The method, then:
FIG. 6. Biochemical and histological examination of fibrosis in Mdr2^−/− mice treated with vehicle or F-4N. Mdr2^−/− mice (18-20 weeks old) with established liver fibrosis were treated with F-4N (10 mg/kg/daily i.p. n=10) or vehicle (i.p. n=10) for 14 days, then sacrificed the next day. Liver tissue and serum were collected for analysis. Left panel. […] Right panels.
Hydroxyproline content was measured using a hydroxyproline assay kit (Biovision) according to the manufacturer's instructions with slight modification. The liver tissues were weighed, homogenized in sterile water (10 mg of tissue per 100 μL H2O) and hydrolyzed in 12 M HCl in a pressure-tight, Teflon capped vial at 120° C. for 3 hours followed by filtration through a 45 μm Spin-X Centrifuge Tube filter (Corning). Ten μL of the hydrolyzed samples was dried in a Speed-Vac for 2 hours, followed by incubation with 100 μL of Chloramine T reagent for 5 minutes at room temperature and 100 μL of 4-(dimethylamino)benzaldehyde (DMAB) for 90 minutes at 60° C. The absorbance of oxidized hydroxyproline was determined at 560 nm. Hydroxyproline concentrations were calculated from a standard curve generated using known concentrations of trans-4-hydroxyl-L-proline. The total amount of protein isolated from the weighed tissues was determined by using a protein assay kit (Bio-Rad, absorbance at 595 nm). The amount of collagen was expressed in μg/mg total protein.
The slides were then stained with a solution containing 0.1% picrosirius red (Direct Red 80) and 0.1% fast green (counterstain) in saturated aqueous solution of picric acid, for 60 minutes at room temperature, followed by one wash in distilled water, de-hydration in 3 changes of 100% EtOH, clear in xylene and mount in resinous medium.
Serum alanine aminotransferase (ALT), alkaline phosphatase (ALP) and total bile acids were measured using a commercially available veterinary chemistry analyzer (VetScan 2, Abaxis).
RNA isolation using RNeasy Plus Mini Kit (Qiagen) according to the manufacturer's instructions. Isolated RNA (250 ng) was then used to synthesize cDNA using SuperScript VILO (Invitrogen). Quantitative PCR was performed using FastStart Essential DNA Green Master (Roche) and analyzed using a LightCycler 96 (Roche). Data are expressed as a fold change by ΔΔCt relative to glyceraldehyde-3-phosphate dehydrogenase (GAPDH).

A short description of series [7]: Microsomal stability, mouse liver derived microsomes. Type of series: in vitro ADME. The method, then:
The microsomal stability of F-4N was also assessed (FIG. 28). Compounds were incubated with human or mouse liver derived microsomes. The percent of F-4N recovered was analyzed by LC-MS. Verapamil was used as a control for a rapidly degraded compound. Analysis was performed by Cyprotex (Framingham, MA).

Molecules are shown by their SMILES.

As to `O=c1c(O)c(-c2ccc(OCc3ccncc3)cc2)oc2ccccc12` [F—4N], the DRAK1 kinase activity result in series [1] was “can inhibit”. The IC50 in series [2] is ~0.2 µM. Moreover, the recovery at 4 h, 5 μM in series [3] came to 100%. Further, the Plasma bound in series [3] (4 h, 5 μM) was determined as 99%. In addition, the “plasma protein binding (in words)” value in series [3] (plasma) is recorded as “high”. The same compound had a Plasma unbound in series [3] (plasma, 4 h, 5 μM) of 0.94%. For the same compound, in series [4], the “efficacy in NASH model (histology, Sirius Red, liver weight, liver function, triglyceride, hydroxyproline)” value is reported as “effective to treat NASH”; the “liver expression of profibrotic genes, inflammatory genes, and Stk17b (qPCR)” value is “effectively reduced expression”. Also, a half-maximal response in series [5] (EC50) required 1.8 µM. For the same compound, the “reduction of liver collagen content (hydroxyproline assay) compared to vehicle control” value in series [6] is listed as ~40%. Also, in series [6] (compared to vehicle), the “Liver function tests: ALT, ALP and serum bile acid values” is given as “significantly reduced”; the “RT-PCR of whole liver RNA: Col1a1, Il6, Ccl2, Cdkn1a, Cdkn2a” value is “significantly reduced”. Moreover, the “Picrosirius red staining of liver collagen fibers” value in series [6] (particularly portal-to-portal areas) is recorded as “reduction of collagen fibers”. Also, in series [7], the “microsomal stability: half-life and clearance rate” value was “in line with many clinically approved orally administered drugs”.
